Results taken from US20170216297A1, “EFFICIENT INHIBITION OF HSP27” (TECHNISCHE UNIVERSITAET DRESDEN, priority 2014, published 2017).
Read-outs that look alike come from different tables or passages of the source. One block for each molecule: values may come before it.

How the values were obtained:
HSP27 [1] = target: T1, HSP27 (Homo sapiens, UniProt P04792); experiment: Bio-layer interferometry (ForteBio Octet Red 384, biotinylated HSP27 on SSA sensors); assay type: binding
Text: Bio-layer interferometry is a technique for detecting biomolecular interactions. It is an analytical technique that measures the optical interference of white light which is reflected by two surfaces: in each case, one surface consists of a layer of the immobilized target protein on the tip of the biosensor and one is an internal reference surface. The binding of ligands to the target protein alters the interference pattern and can be measured in real time.
For the measurements, an instrument of the ForteBio Octet Red 384 brand was used. The target protein HSP27 was biotinylated and bound to the appropriate sensors (SSA). […] The purine derivatives of general formula (I) or (II) pre-identified by means of in silico screening are employed for these measurements in a concentration range (KD) of between 333 μmol/L and 10 nmol/L.
For measurements by bio-layer interferometry, biotinylated HSP27 protein was first bound to Super-Streptavidin sensors (SSA, Fortebio). The loaded sensors were then incubated (“quenched”) with biocytin. As reference, unloaded SSA sensors were incubated with biocytin. In the case of a specific binding to HSP27 of the analyte to be measured, the loaded HSP27 sensor generates a stronger signal (response) than the concurrent reference sensor. After the “baseline” has been established by incubation with the reaction buffer (PBST 0.1% Tween 20 plus 3% DMSO), first the association and then the dissociation of the respective analyte is measured in real time. The analytes were measured in increasing concentrations in each case: 1.23-3.7-11.11-33.33-100-300 μM/l.

RPMI-8226 cells = experiment: Development of resistance to bortezomib in RPMI-8226 cells; assay type: cell-based
Method: The cell line RPMI-8226 (DMSZ 402) is a “multiple myeloma” cell line and was chosen because bortezomib is employed as a standard therapy for multiple myeloma. RPMI-8226 cells respond to bortezomib, express HSP27 and develop resistance to Velcade. RPMI-8226 cells were seeded at a cell count of 100,000 cells/ml in each case and regularly passaged. […] In contrast, for RPMI 8226 cells that were treated with 30 μmol/L BVDU, a final cell count of 160,000 cells/ml was detected whereas the final cell count for the culture without the addition of an HSP27 inhibitor amounted to 350,000 cells/ml. As a control, RPMI 8226 cells were treated with the respective test substances alone, FIG. 4b.

HSP27 [2] = target: T1, HSP27; experiment: Spectrophotometric protein aggregation assay (citrate synthase heat denaturation, HSP27 chaperone function); assay type: biochemical; settings: 43° C., 500 nm
Method: FIG. 1: a spectrophotometric protein aggregation assay at 43° C., a wavelength of 500 nm and a concentrations of the proteins: 1.44 μmol/L citrate synthase (CS), 481 nmol/L HSP27 (HSP) in a 40 mmol/L HEPES buffer (pH 7.4) during treatment with 14 or 28 μmol/L 2-(3-trichlorovinylphenylamino)-1,9-dihydropurin-6-one (CS+HSP+test substance no. 2), with 750 μmol/L BVDU (CS+HSP+BVDU) and without (CS+HSP; reference);
A known client protein (=substrate on which HSP27 acts as a chaperone) of HSP27 is citrate synthase. Citrate synthase is denatured when the temperature increases to 43° C. This heat denaturation is prevented or delayed by the presence of HSP27 [Jakob U, 1993]. By adding the novel active ingredients, their efficacy can thus be measured through the inhibition of the HSP27 chaperone function.
To determine the activity (i.e. the effect on the aggregation behaviour of the citrate synthase (CS) after thermal incubation) of 2-(3-trichlorovinylphenylamino)-1,9-dihydropurin-6-one in comparison to BVDU, four different batches containing 1.44 μmol/L CS, 481 nmol/L HSP27 (HSP) in a 40 mmol/L HEPES buffer (pH 7.4) were prepared and BVDU (750 μmol/L) or various concentrations of 2-(3-trichlorovinylphenylamino)-1,9-dihydropurin-6-one (14 μmol/L; 28 μmol/L) were added. The samples were then incubated at 43° C. and the aggregation behaviour of the CS was monitored in a spectrometer (PerkinElmer LS55, PerkinElmer Inc.) at a wavelength of 500 nm.
It can be seen from FIG. 1 that the protein citrate synthase (graph CS alone) is denatured by increasing the temperature to 43° C. and forms aggregates. The aggregation is measured in the spectrometer at 500 nm (light scattering by protein aggregates). The presence of HSP27 (HSP) counteracts the aggregation (cf. graph, CS+HSP). Since the addition of the test substances (BVDU and 2-(3-trichlorovinylphenylamino)-1,9-dihydropurin-6-one) inhibits the chaperone function of HSP27, the activity of the respective test substance can be determined by measuring the aggregation behaviour of the CS.

HSP27 [3] = target: T1, HSP27; experiment: Capillary electrophoresis of the CS protein precipitates (precipitated citrate synthase as measure of HSP27 inhibition); assay type: biochemical; settings: for times higher activity than BVDU for the inhibition of the HSP27 protein: 120 minutes
Method: (§1) Since the heat-denatured protein aggregates of the citrate synthase from Example 1 are not water-soluble, these can be separated completely from the supernatant by means of centrifugation at room temperature at 16,000×g, 10 min. By using capillary electrophoresis, the compositions of the separated precipitates can be shown and quantified. The relative quantity of protein of precipitated citrate synthase serves as a measure of the efficacy of the test substances.
(§2) In each case, 481 nmol/L HSP27 and 1.44 μmol/L citrate synthase in 40 mmol/L HEPES buffer, pH 7.4, were employed. The relative quantity of protein of the precipitated citrate synthase in each case was normalized using a defined quantity of BSA as internal standard. The relative quantity of protein that precipitated when using 750 μmol/L BVDU was set at 1. The other test substances (2 representatives of phenothiazine derivatives of general formula (V), 2 representatives of purine derivatives of formula (I) or (II)) were each employed at a concentration of 10 μmol/L.
as §1, with “Example 2” for “Example 1”
as §2, with “nM” for “nmol/L”, “thymine” for “purine”, “were” for “were each”, “μmol/L in each case.” for “μmol/L.”
Otherwise, the experiments were performed as described above: […]

U937 cells = experiment: Development of resistance to bortezomib in U937 cells; assay type: cell-based; settings: Examples 17/18: bortezomib 0.1-0.5 ng/ml, plus 0.75 μmol/L inhibitor
Method: For this purpose, U937 cells (histiocytic lymphoma) were cultured in DMEM culture medium (+10% FCS) at 37° C., 5% CO2 in an H2O-saturated atmosphere. 100,000 cells/ml were seeded and incubated with the cytostatic agent bortezomib (0.1 ng/ml) and the respective test substance (dosage in the current experiment: 1 μM/L acepromazine). The reference substance, BVDU, was employed at a concentration of 30 μM/L. The cells were in each case passaged before the cell count reached 1,000,000 cells/ml. At each passage, 100,000 cells/ml were again seeded and the dose of the cytostatic agent bortezomib was increased stepwise (0.1 ng/mL or 0.05 ng/mL). The concentration of the test substances remained constant. As a result of the stepwise increase in the dosage of the cytostatic agent, resistance developed in the U937 cells. The development of resistance is prevented or inhibited in the case of a positively tested HSP27 inhibitor. The experiments from Example 6 were repeated in the same way, wherein U937 cells (histiocytic lymphoma) are cultured in DMEM culture medium (+10% FCS) at 37° C., 5% CO2 in an H2O— saturated atmosphere. 100,000 cells/ml were seeded and incubated with an initial concentration of 0.2 ng/ml of the cytostatic agent bortezomib and both without an inhibitor and with acepromazine as an HSP27 inhibitor at a concentration of 1 μM/L. The reference substance, BVDU, was employed at a concentration of 30 μM/L. The cells were passaged in each case before the cell count reached 1,000,000 cells/ml. At each passage, 100,000 cells/ml were again seeded and the dose of the cytostatic agent bortezomib was increased stepwise by 0.1 ng/mL. The concentration of the test substance and the reference substance remained constant. As a result of the stepwise increase in the dosage of the cytostatic agent, resistance developed in the U937 cells. The development of resistance is prevented or inhibited in the case of a positively tested HSP27 inhibitor. The cell line U-937 is a histiocytic lymphoma (DSMZ ACC 5). This cell line also responds to treatment with bortezomib, expresses HSP27 and develops resistance to bortezomib. Bortezomib is not the standard therapy for this lymphoma, but is being discussed as a possible therapeutic agent. U-937 cells were seeded with a cell count of 100,000 cells/ml in each case and regularly passaged. […] At the end of the experiment, 70,000 living cells per ml medium could be detected. For the treatment with 30 μmol/L BVDU, a final cell count of 250,000 cells/ml was detected whereas the final cell count in the culture without the addition of an HSP27 inhibitor amounted to 450,000 cells/ml. As a control, U-937 cells were treated with the respective test substances alone, FIG. 10b.

[4] = cited from earlier work
[5] = analytes 1.23-300 μM/l, PBST 0.1% Tween 20 plus 3% DMSO, read-out: Dissociation constant KD
[6] = bortezomib 0.1-0.3 ng/ml, plus 1 μM inhibitor
[7] = 10 μmol/L, 43° C. for 120 minutes, 750 μmol/L BVDU set at 1
[8] = bio-layer interferometry, read-out: KD
[9] = bortezomib 0.075-0.275 ng/ml, plus 1 μmol/L inhibitor

T1 sequence (P04792 whole entry): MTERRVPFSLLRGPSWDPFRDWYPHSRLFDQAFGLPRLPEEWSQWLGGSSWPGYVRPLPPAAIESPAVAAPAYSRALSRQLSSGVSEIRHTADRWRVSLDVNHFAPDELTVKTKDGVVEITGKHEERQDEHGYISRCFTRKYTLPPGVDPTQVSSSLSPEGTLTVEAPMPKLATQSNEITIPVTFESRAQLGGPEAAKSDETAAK

Kd (HSP27 [1]; [5]): 710 µM
Structure (SMILES): O=c1nc(Nc2cccc(CO)c2)[nH]c2nc[nH]c12 [2-(3-Hydroxymethylphenylamino)-3,7-dihydropurin-6-one]

Inhibition of HSP27 chaperone function (CS aggregation), effect versus 750 μmol/L BVDU (HSP27 [2]; 14 μmol/L): comparable effect
Inhibition of HSP27 chaperone function (CS aggregation), effect versus 750 μmol/L BVDU (HSP27 [2]; 28 μmol/L): significantly more pronounced effect
Rel. quantity of protein prec. CS (HSP27 [3]; [7]): 0.71
times higher activity than BVDU for the inhibition of the HSP27 protein (HSP27 [3]; 10 μmol/L): 53 times
Structure (SMILES): O=c1[nH]c(Nc2cccc(C(Cl)=C(Cl)Cl)c2)nc2[nH]cnc12 [2-(3-trichlorovinylphenylamino)-1,9-dihydropurin-6-one]
development of resistance to bortezomib (RPMI-8226 cells; [6]): significantly inhibited

Kd (HSP27 [1]; [8]): 15 µM
Efficacy compared with BVDU (HSP27 [3]; 10 μmol/L vs 750 μmol/L BVDU, 43° C. for 120 minutes): 69.0 x
Rel. quantity of protein prec. CS (HSP27 [3]; [7]): 0.92
times higher activity than BVDU for the inhibition of the HSP27 protein (HSP27 [3]; 10 μmol/L): 69 times
Structure (SMILES): CCCCc1ccc(Nc2nc3c(ncn3COCCO)c(=O)[nH]2)cc1 [2-(4-butylphenylamino)-9-(2-hydroxyethoxymethyl)-1,9-dihydropurin-6-one]
development of resistance to bortezomib (RPMI-8226 cells; [6]): significantly inhibited
development of resistance to bortezomib (U937 cells): significantly inhibited

Kd (HSP27 [1]; [5]): 424 µM
Rel. quantity of protein prec. CS (HSP27 [3]; [7]): 0.81
times higher activity than BVDU for the inhibition of the HSP27 protein (HSP27 [3]; 10 μmol/L): 61 times
Structure (SMILES): Cc1cn(CC=CCNC(=O)Cc2ccc(-c3ccccc3)cc2)c(=O)[nH]c1=O [2-biphenyl-4-yl-N-[4-(5-methyl-2,4-dioxo-3,4-dihydro-2H-pyrimidin-1-yl)-but-2-enyl]-acetamide]
development of resistance to bortezomib (RPMI-8226 cells; [9]): significantly inhibited

Kd (HSP27 [1]; [5]): 60 µM
Structure (SMILES): O=c1[nH]c(=O)n([C@H]2C[C@H](O)[C@@H](CO)O2)cc1-c1ccccc1 [5-Phenyl-2′-deoxyuridine]

Kd (HSP27 [1]; [5]): 267 µM
Rel. quantity of protein prec. CS (HSP27 [3]; [7]): 0.65
times higher activity than BVDU for the inhibition of the HSP27 protein (HSP27 [3]; 10 μmol/L): 49 times
Structure (SMILES): Cc1cn(CC=CCNC(=O)C2c3ccccc3Oc3ccccc32)c(=O)[nH]c1=O [9H-xanthene-9-carboxylic acid [4-(5-methyl-2,4-dioxo-3,4-dihydro-2H-pyrimidin-1-yl)-but-2-enyl]amide]
development of resistance to bortezomib (RPMI-8226 cells; [9]): significantly inhibited

Rel. quantity of protein prec. CS (HSP27 [3]; 750 μmol/L, 43° C. for 70 minutes, set at 1): 1
Rel. quantity of protein prec. CS (HSP27 [3]; 750 μmol/L, 43° C. for 120 minutes, set at 1): 1
Structure (SMILES): O=c1[nH]c(=O)n([C@H]2C[C@H](O)[C@@H](CO)O2)cc1/C=C/Br [BVDU, (E)-5-(2-bromovinyl)-2′-deoxyuridine, reference compound]
tolerability in patients ([4]; increased administered dose of 760 mg/day): proved disadvantageous for low-weight patients
safety and efficacy in patients ([4]; oral, administered dose of 500 mg/day): works safely and efficiently
Inhibition of HSP27 chaperone function (CS aggregation) (HSP27 [2]; 750 μmol/L): partially cancels the chaperone function of HSP27

Kd (HSP27 [1]; [8]): 770 µM
Structure (SMILES): CN(C)CCCN1c2ccccc2Sc2ccc(Cl)cc21 [Chlorpromazine, reference compound]
development of resistance to bortezomib (RPMI-8226 cells; bortezomib 0.2-0.4 ng/ml, plus 0.5 μmol/L inhibitor): significantly inhibited
